# Source: paper PMC8179358, “An explicitly designed paratope of amyloid-β prevents neuronal apoptosis in vitro and hippocampal damage in rat brain” (Chemical Science, 2020)
# Key:
# [1] = test system: Bax, Bcl-2; assay: Western blot, Bax and Bcl-2; format: cell-based, human; settings: Aβ40 alone (10 μM), compared to healthy cells
# Procedure: e. Measurement of intracellular calcium (Ca 2+)
# Ca2+sensitive dye Fura-2AM was used to measure free intracellular Ca2+level in SH-SY5Y cell suspension by the previously described method.12 Following treatment with the respective drug, Fura-2 AM (Cayman, USA) at a concentration of 5 µM was added to the culture medium and incubated at 37°C for 45 min. Next, Krebs-Ringer-HEPES (KRH) buffer (135mM NaCl, 5mM KCl, 1mM MgSO4, 0.4mM KH2PO4, 1mM CaCl2, 5.5mM glucose, 20mM HEPES, pH 7.4) was used to wash each plate twice containing (1×10^6cells). Fluorescent microplate reader (FLX 800, Biotek, USA) was used to measure the fluorescence intensity with an excitation and emission spectra of […], respectively. Results are Mean±SEM of quadruplicate measurements from three separate experiments and expressed in the increase in percent relative fluorescent unit (RFU) relative to the baseline reading.
# Western blot analysis was performed to measure Bax, Bcl-2, cleaved Caspase 9 and cleaved Caspase 3, pro and anti-apoptotic proteins expression. About 5× 10^6 cells were washed with PBS twice following […]
# overnight. […] The optical density (OD) value of each band was analyzed by the electrophoresis image analysis system (Smartview 2001, S/N: SV-0002202, Japan) and normalized against the corresponding β-actin band. […]
# [2] = test system: SH-SY5Y cells; assay: Hoechst 33258 staining of apoptotic cells; format: cell-based, human; settings: Aβ40 10 μM, 24 h
# Description: Condensed or fragmented nuclear bodies characterize the distinctive nature of apoptotic cells. […] Dyshomeostasis of Ca^2+ is also responsible for the increased production of Aβ peptides, by which a degenerative feed-forward cycle is activated, resulting in accelerated apoptosis, synaptic dysfunction, and memory impairment.[49]
substance,measurement,setting,value
Aβ40: commercially available Aβ40 peptide,ratio of Bax/Bcl-2 expression,[1],~3.2 fold
same,"apoptotic cells, Aβ40 alone",[2],A significant number of apoptotic cells were observed
